# Experiment: gradient 5% acetonitrile 3 min, to 50% in 2 min, to 85% in 15 min, held 3 min, 100 µL/min
# Conditions: column: Zorbax Extend-C18 2.1 x 50 mm; eluents: water / acetonitrile, 0.1% formic acid
# Outline: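 Retention times of pure standards were taken from adduct peaks that were selected by computer and manually inspected. Over 3 months, mixtures of ~100 molecules were run by HPLC–quadrupole time-of-flight mass spectrometry in positive and negative ionization mode. The Zorbax Extend-C18 column (2.1 × 50 mm, 1.8 μm) ran at 100 μL/min in water and acetonitrile, each containing 0.1% formic acid, with 40 μL dead volume and 900 μL dwell volume.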
row,RP-LC retention time [s],Compound
1,568,NS(=O)(=O)c1ccc(CCNC(=O)c2cnc3sccn3c2=O)cc1
2,642,CCc1ccc2[nH]c3c(c(=O)c2c1)CN(CC(=O)Nc1cc(OC)cc(OC)c1)CC3
3,785,COc1ccc(Cl)cc1S(=O)(=O)N1C[C@@H](F)C[C@H]1C(=O)N1CCCCC1
4,594,O=C(Cc1cn2cc(F)ccc2n1)Nc1ccc(F)cc1
5,1060,CC(C)Oc1ccc(-c2noc(-c3nn(-c4ccc(Cl)cc4)ccc3=O)n2)cc1
6,636,COc1ccc(-c2nn(CCCC(=O)N3CCN(c4ccccn4)CC3)c(=O)c3noc(C)c23)cc1
7,762,COc1ccc(-c2cc(=O)n(CC(=O)Nc3nc4c(s3)CCCC4)cn2)cc1
8,943,CCCn1cc(S(=O)(=O)Nc2cccc(CC)c2)c2cccnc21
9,1200,COc1ccc(NC(=O)c2csc(-c3ccc(C)n3C)n2)c(OC)c1
10,802,Cc1ccc(N2C=C(C(=O)N3CCCC3)S(=O)(=O)c3ccccc32)cc1
11,905,O=S(=O)(c1ccccc1)N1CC2CN(S(=O)(=O)c3cccc(F)c3)CC(C1)O2
12,817,CCOC(=O)c1ccc(Nc2ncnc3c2cnn3C)cc1
13,968,Cc1cccc(N2C(=O)CN(S(=O)(=O)c3ccccc3)CC2(C)C(=O)NC2CCCC2)c1C (stereo not given)
14,922,O=C(c1cn2nc(Cl)ccc2n1)N1CCN(c2ccccc2Cl)CC1
15,673,CCC(C)NC(=O)N1CCc2c(c(-c3nc(C)no3)nn2C)C1 (stereo not given)
16,836,Cc1ccc(Nc2c(-c3ccc(Cl)cc3)nc3ccc(C)cn23)cc1
17,787,COc1ccc(N2CC(c3noc(-c4cc(OC)c(OC)c(OC)c4)n3)CC2=O)cc1 (stereo not given)
18,655,O=C(COc1ccc(F)cc1)N1CCN(c2nc(CN3CCCCC3)cs2)CC1
19,693,CCn1cc(-c2ccc(OC)cc2)cc1C(=O)NC(C)c1cccnc1 (stereo not given)
20,543,CN(C)S(=O)(=O)N1CC(c2nc(Cc3cccnc3)no2)C1
21,747,Cc1oc(C2CCN(C(=O)Cc3c(F)cccc3Cl)CC2)nc1C(=O)N(C)C
22,989,CCc1nn(CC)c(=O)c2cc(S(=O)(=O)NCc3ccc(Cl)cc3)cn12

row,RP-LC retention time [s],Compound
1,640,O=C(NC1CCCC1)c1ccc2ncnc(N3CCCCC3)c2c1
2,644,CC(C)c1nnc(-c2coc(S(=O)(=O)N3CCN(C4CCCCC4)CC3)c2)o1
3,776,Cc1noc(C)c1S(=O)(=O)N1CCc2nn(Cc3ccccc3)c(=O)n2CC1
4,791,Cc1ccc(NC(=O)C2CCCN2S(=O)(=O)c2cc3c(cc2C)NC(=O)CO3)cc1Cl (stereo not given)
5,572,O=C(NCc1cccnc1)C1=C2CCCN2c2ccc(F)cc2S1(=O)=O
6,582,CCNc1cc(N2CCCC(CCC(=O)NC(C)c3c(C)nn(C)c3C)C2)ncn1 (stereo not given)
7,843,Cc1cc2cc(CNC(=O)Nc3cccc(Cl)c3)ccc2[nH]1
8,629,CCn1cc(CCN2CCN(C(=O)c3ccc(Br)cc3)CC2)c2cccnc21
9,983,CCc1nc(-c2csc(S(=O)(=O)N3CCCC(C(=O)Nc4cccc(C)c4)C3)c2)no1 (stereo not given)
10,823,CCC1(O)CCOC2(CCN(C(=O)C3CCCCCC3)CC2)C1 (stereo not given)
11,1160,COC(=O)C(C)n1nc2nc(Nc3cc(C)cc(C)c3)cc(C)n2c1=O (stereo not given)
12,770,Cc1cc(C(=O)NCC(C)C)c2cccc(Cl)c2n1
13,607,COc1ccc(-c2cn3c(CC(=O)NC4CC4)csc3n2)cc1OC
14,610,COc1ccc(C2(C(=O)N3CCN(C(=O)c4cc(-c5ccncc5)n[nH]4)CC3)CC2)cc1
15,900,CCOc1ccccc1C1NC(=O)N(CC(=O)Nc2ccc3c(c2)CCC3)C2=C1C(=O)OC2 (stereo not given)
16,661,Cc1noc(C)c1C(=O)N1CCCC1Cc1noc(-c2cnccn2)n1 (stereo not given)
17,826,Cc1ccc(NC(=O)Cn2nc3nc(N4CCCC(C)C4)ccn3c2=O)cc1C (stereo not given)
18,720,N#CCc1cnc2ccccc2n1
19,863,Cc1ccc(N2CCN(c3ncc(C(=O)O)c(C)n3)CC2)cc1
20,1070,CCc1nc2cc(-c3noc(-c4cccc(C#N)c4)n3)ccc2o1
21,572,O=C(C1CCN(c2cnc3nccnc3c2)CC1)N1CCN(C2CCCCC2)CC1
22,1010,Cc1oc(-c2ccccc2)nc1Cc1noc(Cc2c[nH]c3ccccc23)n1

row,RP-LC retention time [s],Compound
1,983,Cc1ccc(C)c(NC(=O)CN2C(=O)CCc3cc(S(=O)(=O)N4CCCCC4C)ccc32)c1 (stereo not given)
2,745,CCc1ccc(S(=O)(=O)Nc2cc(-c3cn4ccc(C)cc4n3)ccc2C)cc1
3,544,CCCNc1nccn(C(C)C)c1=O
4,807,CCC1CN2C=NC(N3CCN(C(=O)Nc4ccc(OC)c(Cl)c4)CC3)=CC2=N1 (stereo not given)
5,666,Cn1c(N2CCN(C(=O)COc3ccc(Cl)cc3)CC2)cc(=O)n(C)c1=O
6,611,CC(=O)N1CCc2cc(-c3ccc(C(=O)N4CCN(c5ccccn5)CC4)cc3)ccc21
7,1220,O=C(NCCC1=CCCCC1)C1CCCN(c2ncc(-c3cccc(F)c3)cn2)C1 (stereo not given)
8,879,CC(C)c1noc(-c2ccnc(-n3cnc(C(=O)NCC4CC4)c3)c2)n1
9,947,CC(C)n1c(=O)n(CC(=O)N2CCCc3ccccc32)c2cc(S(=O)(=O)N3CCCC3)ccc21
10,585,Cc1cnc(C2CN(C(=O)C3(c4ccccc4)CC3)C2)n1Cc1cccnc1
11,796,O=c1ccc(-c2cccs2)nn1CCNS(=O)(=O)c1ccc(F)c(Cl)c1
12,989,CC(C)N1C(=O)C(C)(C(=O)Nc2ccc(F)cc2F)Oc2cccnc21 (stereo not given)
13,1150,Cc1oc(-c2ccccc2)nc1CN(c1ccccc1)S(=O)(=O)c1cccs1
14,740,CCc1nc2c(=O)n(CC(=O)N(CC)Cc3ccccc3)nc(C)c2s1
15,981,CCCc1nnc(C(=O)Nc2cccc(C(=O)NCCc3c[nH]c4ccc(Cl)cc34)c2)s1
16,870,CCOC(=O)C1=C(C)NC2=C(C(=O)C(C(=O)OC)C(C)C2)C1c1ccc(F)cc1 (stereo not given)
17,780,Cc1cc(F)ccc1NC(=O)C1CCN(c2cnc3ccccc3n2)CC1
18,957,COC(=O)c1ccc(Cn2cnc3c(-c4cccc(F)c4)csc3c2=O)o1
19,552,Cc1nc2ccn(Cc3cccnc3)c(=O)c2cc1C(=O)N1CCOCC1
20,781,CC(=O)Nc1ccc(OCc2cc(C(=O)NC3CCCCC3)no2)cc1
21,567,COc1cn(CC(=O)Nc2cccc([N+](=O)[O-])c2)c(CN2CCC(C)CC2)cc1=O
22,631,Cc1ccsc1C(=O)N1CCC(N2C[C@H](O)C[C@H]2C(=O)NC2CCCCC2)CC1

row,RP-LC retention time [s],Compound
1,773,COc1ccccc1CNC(=O)CN1CCN(Cc2ccccc2)C1=O
2,1160,O=C(Nc1nc(-c2ccc3ccccc3c2)cs1)c1ccc2c(c1)OCO2
3,750,Cc1ccccc1Nc1c(-c2ccccc2)nc2cccc(C)n12
4,789,Cc1noc(-c2cccc(OC3CN(C(=O)c4ccco4)C3)c2)n1
5,1150,O=C1c2ccccc2C(=O)c2oc(-c3ccccc3)nc21
6,833,Cc1cccc(C#Cc2ccccc2)n1
7,878,CC(C)c1cccc(NC(=O)Cn2ccc3sccc3c2=O)c1
8,734,COc1ccc(C(=O)N2CCC3(CC2)NC(=O)c2cc(F)ccc2N3C)c(OC)c1
9,853,CCOc1ccccc1NC(=O)Cn1nc2c(N3CCSCC3)nccn2c1=O
10,836,Brc1ccccc1-c1nn2c(-c3ccccn3)nnc2s1
11,669,CCNc1cc(N2CCCC(CCC(=O)Nc3ccccc3)C2)ncn1 (stereo not given)
12,718,O=C(C1CCN(c2cnc3nccnc3c2)CC1)N1CCN(c2ccccc2)CC1
13,961,CCOC(=O)C1=C(C)NC2=C(C(=O)c3ccccc32)C1c1ccccc1OCC (stereo not given)
14,964,COc1cccc(C(=O)Nc2nc(-c3ccc4c(c3)NC(=O)C(C)O4)c(C)s2)c1 (stereo not given)
15,874,CCc1ccc(NC(=O)N2CCC3(CC2)NC(=O)c2cc(C)ccc2N3C)cc1
16,630,Cn1c(=O)n(C)c2cc(CNc3ccc4c(c3)OCO4)ccc21
17,1100,Cc1cccc(C)c1NC(=O)CSc1cc(N2CCN(c3ccccc3F)CC2)ncn1
18,770,O=C(Nc1nc2c(s1)CN(C(=O)C1CC=CCC1)CC2)c1cccs1 (stereo not given)
19,1160,COc1ccc(-n2c(=O)c(C(=O)NCC(C)C)c(O)c3cccnc32)cc1
20,662,CCc1ccc(NC(=O)N2CCC(CN3CCCC(C)C3)CC2)cc1 (stereo not given)
21,848,Cc1ccc(-c2noc(-c3ccc(N4CCN(C5CCCCC5)CC4)nc3)n2)cc1

row,Compound,RP-LC retention time [s]
1,CCCN1CCc2cccc3c2[C@H]1Cc1ccc(O)c(O)c1-3,652
2,COC(=O)c1cncn1C(C)c1ccccc1 (stereo not given),737
3,Cc1ccccc1-n1c(Cn2ncc3c(N)ncnc32)nc2cccc(C)c2c1=O,719

# — the METLIN SMRT retention time set (Domingo-Almenara et al. 2019)
